Data published in patent US12286440B2, “Penam derivative or salt thereof, pharmaceutical composition, and applications thereof” (priority 2018, dated 2025).
Converted amounts (≈) assume the structure as drawn.

Assays:
Experiment in all cases: Antibacterial activity evaluation test, MIC by CLSI broth microdilution
Type in all cases: cell-based
Details in all cases: cation-adjusted Mueller Hinton medium, 35° C., 16 to 20 hours
[1] = system: GES-19 and GES-20-containing Pseudomonas aeruginosa strain (S-3759)
Method: (§1) The minimum inhibitory concentration (MIC) was measured according to the Clinical and Laboratory Standards Institute (CLSI) standard method by using the following broth microdilution method.
(§2) As bacteria, a Pseudomonas aeruginosa strain ATCC27853, an AmpC-derepressed Pseudomonas aeruginosa mutant strain (S-3028), an IMP-1-containing Pseudomonas aeruginosa strain (S-2838), a VIM-2-containing Pseudomonas aeruginosa strain (S-3779), a GES-19 and GES-20-containing Pseudomonas aeruginosa strain (S-3759), a CTX-M-15-containing Escherichia coli strain (TK-1747), a KPC-2-containing Klebsiella pneumoniae strain (Y-995), an OXA-48-containing Klebsiella pneumoniae strain (Y-1062), and an NDM-1-containing Klebsiella pneumoniae strain (Y-1007) were used. The test bacterial cells that had been cultured overnight on a Mueller Hinton agar medium were scraped off, suspended at a density equivalent to 0.5 McFarland standard, and diluted 10-fold, thereby obtaining an inoculum. A cation-adjusted Mueller Hinton medium containing a test compound was inoculated with 0.005 mL of the inoculum, and the cells were cultured at 35° C. for 16 to 20 hours. The minimum drug concentration at which the growth of bacteria was not visually observed was defined as MIC […].
(§3) An antibacterial activity evaluation test was performed in the same manner as in Test Example 1.

[2] = system: CTX-M-15-containing Escherichia coli strain (TK-1747)
Method: as §1, §2, §3

[3] = system: KPC-2-containing Klebsiella pneumoniae strain (Y-995)
Method: as §1, §2, §3

[4] = system: OXA-48-containing Klebsiella pneumoniae strain (Y-1062)
Method: as §1, §2, §3

[5] = system: Pseudomonas aeruginosa strain ATCC27853
Method: as §1, §2, §3

[6] = system: IMP-1-containing Pseudomonas aeruginosa strain (S-2838)
Method: as §1, §2, §3

[7] = system: NDM-1-containing Klebsiella pneumoniae strain (Y-1007)
Method: as §1, §2, §3

[8] = system: VIM-2-containing Pseudomonas aeruginosa strain (S-3779)
Method: as §1, §2, §3

[9] = system: AmpC-derepressed Pseudomonas aeruginosa mutant strain (S-3028)
Method: as §1, §2, §3

SMILES | MIC, Pseudomonas aeruginosa S3759 [1] | MIC, Escherichia coli TK-1747 [2] | MIC, Klebsiella pneumoniae Y-995 [3] | MIC, Klebsiella pneumoniae Y-1062 [4] | MIC, Pseudomonas aeruginosa ATCC 27853 [5] | MIC, Pseudomonas aeruginosa S-2838 [6] | MIC, Klebsiella pneumoniae Y-1007 [7] | MIC, Pseudomonas aeruginosa S-3779 [8] | MIC, Pseudomonas aeruginosa S-3028 [9]
Nc1nc(/C(=N/OC2(C(=O)O)CCC2)C(=O)N[C@@H]2C(=O)N3C[C@@](C(=O)O)(N4CCN(NC(=O)C(=O)c5ccc(O)c(O)c5Cl)C4=O)S[C@H]23)cs1 [Example 19, (3R,5R,6R)-6-((Z)-2-(2-aminothiazol-4-yl)-2-((1-carboxycyclobutoxy)imino)acetamido)-3-(3-(2-(2-chloro-3,4-dihydroxyphenyl)-2-oxoacetamido)-2-oxoimidazolidin-1-yl)-7-oxo-4-thia-1-azabicyclo[3.2.0]heptane-3-carboxylate] | 0.25 µg/mL (≈ 0.332 µM) | 0.5 µg/mL (≈ 0.664 µM) | 0.25 µg/mL (≈ 0.332 µM) | 0.12 µg/mL (≈ 0.159 µM) | 0.25 µg/mL (≈ 0.332 µM) | 0.25 µg/mL (≈ 0.332 µM) | < 0.06 µg/mL | 0.25 µg/mL (≈ 0.332 µM) | 2 µg/mL (≈ 2.66 µM)
CC(C)(O/N=C(\C(=O)N[C@@H]1C(=O)N2C[C@@](C(=O)O)(N3CCN(NC(=O)C(=O)NCCNC(=O)c4ccc(O)c(O)c4Cl)C3=O)S[C@H]12)c1csc(N)n1)C(=O)O [Example 68, (3R,5R,6R)-6-((Z)-2-(2-aminothiazol-4-yl)-2-(((2-carboxypropan-2-yl)oxy)imino)acetamido)-3-(3-(2-((2-(2-chloro-3,4-dihydroxybenzamido)ethyl)amino)-2-oxoacetamido)-2-oxoimidazolidin-1-yl)-7-oxo-4-thia-1-azabicyclo[3.2.0]heptane-3-carboxylate] | 4 µg/mL (≈ 4.84 µM) | 1 µg/mL (≈ 1.21 µM) | 0.5 µg/mL (≈ 0.604 µM) | 1 µg/mL (≈ 1.21 µM) | 1 µg/mL (≈ 1.21 µM) | 1 µg/mL (≈ 1.21 µM) | < 0.06 µg/mL | 2 µg/mL (≈ 2.42 µM) | 0.25 µg/mL (≈ 0.302 µM)
